According to patent US7858738B2, “Synthetic human peptides and pharmaceutical compositions comprising them for the treatment of systemic lupus erythematosus” (Yeda Research and Development Co., Ltd., priority 2001, dated 2010):

How the values were obtained:
SJL-derived LNCs = assay: In vivo inhibition of proliferation of LNC of SJL mice immunized with mCDR3; details: maximum % inhibition; 200 μg s.c. in PBS concomitant with immunization; LNC tested ten days later
Protocol: To this end, BALB/c and SJL mice were immunized with mCDR1 and mCDR3, respectively. The immunizing murine peptides were injected (10 μg/mouse) in CFA intradermally in the hind footpads. Concomitant with the immunization, groups of BALB/c mice were injected subcutaneously (s.c.) with 200 μg in PBS of hCDR1 and groups of SJL mice were similarly injected with hCDR3. Ten days after the immunization, mice were sacrificed and their lymph nodes were harvested and the cells were tested for their ability to proliferate following triggering with the immunizing peptides. Briefly, LNCs of immunized mice (0.5×10^6/well) were cultured (in triplicates) in the presence of different concentrations (1-20 μg/well) of the murine immunizing peptides in enriched RPMI-1640 medium supplemented with 1% normal mouse serum. Following four days of incubation, ^3H-thymidine was added for additional 16 hours. Cells were then harvested and radioactivity was counted using a β-counter.
The inhibition was calculated based on the proliferation of LNCs of mice that were not treated with the inhibitory peptides hCDR1 and hCDR3. It can be seen that hCDR1 and hCDR3 were capable of inhibiting the proliferative responses to the immunizing murine CDR peptides.

BALB/c mice = assay: Treatment of 16/6Id-induced experimental SLE in BALB/c mice; format: in vivo; details: for mice with immune complex deposits in kidneys: 7 months after booster, untreated 9/10; for Anti-dsDNA O.D. (1:50), Mean ± SD: 16/6Id injected 1.1 ± 0.6; for Anti-dsDNA antibodies at a dilution of: 1:250, Mean ± SD: 16/6Id alone 1.16 ± 0.37; for Intensity of ICD In kidneys, Mean ± SD: 16/6Id alone 1.86 ± 0.38; for Anti-16/6 Id antibodies at a dilution of 1:1000, Mean ± SD: 16/6Id alone 2.55 ± 0.09; for Anti-dsDNA antibodies 1:1250, Mean ± SD: 16/6Id alone 0.47 ± 0.3; for Anti-16/6 Id antibodies 1:10000, Mean ± SD: 16/6Id alone 0.89 ± 0.1; for Intensity of ICD in kidneys, Mean ± SD: 16/6Id alone 1.6 ± 0.55
Protocol: Induction and treatment of experimental SLE. In order to induce experimental SLE, BALB/c mice were immunized with 1-2 μg of the human mAb 16/6Id and boosted 3 weeks later. For the prevention of experimental SLE, mice were given hCDR1 or hCDR3 (mCDR1 or revmCDR1 as control peptide in Example 12) intravenously (i.v.) or s.c. concomitant with the immunization, and were injected weekly thereafter for 5 weeks. Treatment of an established disease started three and a half months following disease induction with the 16/6Id, when clinical manifestations were already observed. In Example 12, mice received 10 weekly injections (i.v. or s.c.) of mCDR1 or revmCDR1 at a dose of 100 μg/mouse. Prevention and treatment of SLE-like disease in (NZB×NZW)F1 mice with the hCDR1 or mCDR1 peptide. For prevention of SLE, mice at the age of 2 months, before disease manifestations are observed, were injected s.c. with hCDR1 (or mCDR1 in Example 12, 250 μg/mouse) once a week for 10 weeks. To treat an established disease, mice at the age of 5-7 months were injected with hCDR1 (in Example 12, mCDR1 s.c., 250 μg/mouse) once a week for 10 weeks. Proliferative Responses. PBL were isolated from heparinized venous blood by Ficoll-Hypaque (Pharmacia) density-gradient centrifugation. All assays were performed, in triplicate, in flat-bottomed microtiter plates (Falcon, Becton Dickinson, Oxmard, Calif., USA) in which 2×10^5 PBL were cultured in enriched RPMI-1640 as described (Dayan et al., 2000). The PBL were exposed to various concentrations (0.1-40 μg/well) of the human anti-DNA 16/6Id mAb with and without the addition of the various CDR-based peptides at a concentration of at least 10-fold excess over that of the 16/6Id. Phytohemagglutinin (PHA; 2 μg/well) was used as a control for culture conditions at each experiment. The cultures were incubated in 7.5% CO2 at 37° C. for 6 days. Eighteen hours before the cells were harvested, [^3H]-thymidine (0.5μ Ci of 5 Ci/mmol) (Nuclear Research Center, Negev, Israel) was added to all cultures. Results are expressed as the mean thymidine incorporation in counts per minute (CPM) of triplicate culture±SD, or as stimulation index (S.I.; the ratio of mean CPM at the optimal concentration of the human 16/6Id to the mean CPM in the presence of medium alone). A S.I.≧2 was considered a positive response (Dayan et al., 2000). Inhibition (the ratio of mean CPM in the presence of the 16/6Id and various CDR-based peptides to the mean CPM with the 16/6Id without the CDR-based peptide) above 50% was considered positive. Induction of Cytokine Production. Mice that were immunized with the human 16/6Id mAb and either treated or not with the CDR-based peptide, were killed at different periods during or after treatment with the peptide. Splenocytes and lymph node cells (LNC) were harvested and incubated (5×10^6/ml) in the presence of the 16/6Id. Supernatants were collected after 48 and 72 h. Assessment of Cytokines in the Supernatants. Supernatants were collected 48 hours following the initiation of the cultures and stored at −70° C. Measurements of IL-2, IL-10, IFN-γ, and TNF-α were performed by ELISA by using the relevant standards, capture and detecting Abs (Pharmingen) according to the manufacturer's instructions. TGF-β was determined by an ELISA. Briefly, plates were coated with the recombinant human TGF-β1 sRIII/Fc chimera (R & D Systems Inc., Minneapolis, Minn., USA), and the second Ab used was the biotinylated anti-human TGF-β1 antibody (R & D Systems Inc.). The substrate solution used was TMB color Reagent (Helix Diagnostics, West Sacramento, Calif.), and enzyme activity was evaluated by using 570- and 630-nm filters. Detection of SLE-Associated Clinical and Pathological Manifestations. Proteinuria was measured semiquantitatively by using Combistix kit (Ames Division, Bayer Diagnostics, Newbury, U.K.). White blood cells (WBC, for leukopenia) were counted after a 10-fold dilution of heparinized blood in distilled water containing 1% acetic acid (vol/vol). […]

[1] = Table 11, 200 μg/mouse for 10 weeks
[2] = Table 11, 300 μg/mouse for 10 weeks
[3] = Table 11, 400 μg/mouse for 10 weeks

Sequence: YYCARGLLRGGWNDVDYYGMDV (Human) [hCDR3, peptide based on the CDR3 of the heavy chain of the human 16/6Id mAb]
- % Inhibition of the proliferation of SJL-derived LNCs to mCDR3 (SJL-derived LNCs): 55%

Sequence: GYYWSWIRQPPGKGEEWIG (Human) [hCDR1, 19-mer peptide based on the CDR1 of the heavy chain of the human 16/6Id mAb]
- mice with immune complex deposits in kidneys (BALB/c mice; 100 μg/mouse): 3/10
- mice with immune complex deposits in kidneys (BALB/c mice; 300 μg/mouse for 10 weeks): 2/9
- Proteinuria g/l, Mean ± SD (BALB/c mice; Table 10, 100 μg, end of treatment, 16/6Id injected 0.65 ± 0.36): 0.3 ± 0.02 g/L
- Anti-dsDNA O.D. (1:50), Mean ± SD (BALB/c mice; Table 10, 100 μg, end of treatment): 0.3 ± 0.2 O.D.
- WBC/mm^3, Mean ± SD (BALB/c mice; Table 10, 100 μg, end of treatment, 16/6Id injected 3260 ± 920): 6090 ± 2160 /mm^3
- Proteinuria g/l, Mean ± SD (BALB/c mice; Table 10, 300 μg, end of treatment, 16/6Id injected 0.65 ± 0.36): 0.34 ± 0.25 g/L
- Anti-dsDNA O.D. (1:50), Mean ± SD (BALB/c mice; Table 10, 300 μg, end of treatment): 0.55 ± 0.3 O.D.
- WBC/mm^3, Mean ± SD (BALB/c mice; Table 10, 300 μg, end of treatment, 16/6Id injected 3260 ± 920): 5890 ± 2660 /mm^3
- Proteinuria g/l, Mean ± SD (BALB/c mice; Table 11, 200 μg/mouse for 10 weeks, 16/6Id alone 0.5 ± 0.34): 0.13 ± 0.16 g/L
- Anti-dsDNA antibodies at a dilution of: 1:250, Mean ± SD (BALB/c mice; [1]): 0.69 ± 0.39
- Intensity of ICD In kidneys, Mean ± SD (BALB/c mice; [1]): 0.57 ± 0.97
- Anti-16/6 Id antibodies at a dilution of 1:1000, Mean ± SD (BALB/c mice; [1]): 2.7 ± 0.12
- WBC/mm^3, Mean ± SD (BALB/c mice; Table 11, 200 μg/mouse for 10 weeks, 16/6Id alone 2871 ± 1205): 5625 ± 1659 /mm^3
- Proteinuria g/l, Mean ± SD (BALB/c mice; Table 11, 300 μg/mouse for 10 weeks, 16/6Id alone 0.5 ± 0.34): 0.16 ± 0.16 g/L
- Anti-dsDNA antibodies at a dilution of: 1:250, Mean ± SD (BALB/c mice; [2]): 0.45 ± 0.24
- Intensity of ICD In kidneys, Mean ± SD (BALB/c mice; [2]): 0.75 ± 0.71
- Anti-16/6 Id antibodies at a dilution of 1:1000, Mean ± SD (BALB/c mice; [2]): 2.8 ± 0.11
- WBC/mm^3, Mean ± SD (BALB/c mice; Table 11, 300 μg/mouse for 10 weeks, 16/6Id alone 2871 ± 1205): 4677 ± 1508 /mm^3
- Proteinuria g/l, Mean ± SD (BALB/c mice; Table 11, 400 μg/mouse for 10 weeks, 16/6Id alone 0.5 ± 0.34): 0.11 ± 0.15 g/L
- Anti-dsDNA antibodies at a dilution of: 1:250, Mean ± SD (BALB/c mice; [3]): 0.8 ± 0.39
- Intensity of ICD In kidneys, Mean ± SD (BALB/c mice; [3]): 0.71 ± 0.76
- Anti-16/6 Id antibodies at a dilution of 1:1000, Mean ± SD (BALB/c mice; [3]): 2.75 ± 0.1
- WBC/mm^3, Mean ± SD (BALB/c mice; Table 11, 400 μg/mouse for 10 weeks, 16/6Id alone 2871 ± 1205): 4012 ± 1421 /mm^3
- Anti-dsDNA antibodies 1:1250, Mean ± SD (BALB/c mice; Table 12, 200 μg/mouse weekly): 0.23 ± 0.1
- Proteinuria g/l, Mean ± SD (BALB/c mice; Table 12, 200 μg/mouse weekly, 16/6Id alone 0.58 ± 0.34): 0.17 ± 0.15 g/L
- Anti-16/6 Id antibodies 1:10000, Mean ± SD (BALB/c mice; Table 12, 200 μg/mouse weekly): 0.96 ± 0.2
- Intensity of ICD in kidneys, Mean ± SD (BALB/c mice; Table 12, 200 μg/mouse weekly): 1 ± 0.63
- WBC/mm^3, Mean ± SD (BALB/c mice; Table 12, 200 μg/mouse weekly, 16/6Id alone 2800 ± 300): 4900 ± 800 /mm^3
- Anti-dsDNA antibodies 1:1250, Mean ± SD (BALB/c mice; Table 12, 300 μg/mouse weekly): 0.2 ± 0.1
- Proteinuria g/l, Mean ± SD (BALB/c mice; Table 12, 300 μg/mouse weekly, 16/6Id alone 0.58 ± 0.34): 0.085 ± 0.01 g/L
- Anti-16/6 Id antibodies 1:10000, Mean ± SD (BALB/c mice; Table 12, 300 μg/mouse weekly): 0.93 ± 0.1
- Intensity of ICD in kidneys, Mean ± SD (BALB/c mice; Table 12, 300 μg/mouse weekly): 0.5 ± 0.5
- WBC/mm^3, Mean ± SD (BALB/c mice; Table 12, 300 μg/mouse weekly, 16/6Id alone 2800 ± 300): 5800 ± 300 /mm^3
